From patent US20210137117A1, “HERBICIDAL MIXTURES” (Bayer Aktiengesellschaft, priority 2017, published 2021)
“And” between values parts separate entries of the source, which are not always exact repeats. Equal entries are not always repeated.

Tests used:
Assay in all cases: Pre-emergence action against weeds (greenhouse)
Assay type in all cases: in vivo
[1] = tested on: ALOMY—sensitive (Alopecurus myosuroides)
Text: (§1) Depending on the trial conditions, the soil of the standard field soil is sterile or not sterile.
(§2) The amount of water used for spray application was 300l/ha.
ALOMY—sensitive (Alopecurus myosuroides) sensitive to customary herbicidally active compounds.
(§3) Insofar as herbicidal effects of the compositions according to the invention compared to mixtures of the prior art or compared to components applied individually against economically important mono- and dicotyledonous harmful plants were the centre of attention, the synergistic herbicidal activities were calculated using Colby's formula (cf. S. R. Colby; Weeds 15 (1967), 20-22): […]

[2] = tested on: LOLRI—resistant (Lolium rigidum)
Text: as §1, §2
LOLRI—resistant (Lolium rigidum) resistant to herbicidally active compounds of the HRAC groups A and B; population mixture of field origin having increased metabolic resistance (IMR) and some target site resistance (TSR).
as §3

[3] = tested on: TRZAS (Triticum aestivum)
Text: as §1, §2
TRZAS (Triticum aestivum)—Wheat, spring
as §3

[4] = tested on: LOLRI—sensitive (Lolium rigidum)
Text: as §1, §2
LOLRI—sensitive (Lolium rigidum) sensitive to customary herbicidally active compounds.
as §3

[5] = tested on: BROST (Bromus sterilis)
Text: as §1, §2
BROST (Bromus sterilis)—Bromegrass, barren
as §3

[6] = tested on: SORHA (Sorghum halepense)
Text: as §1, §2
SORHA (Sorghum halepense)—Johnsongrass
as §3

[7] = tested on: ALOMY—resistant (Alopecurus myosuroides)
Text: as §1, §2
ALOMY—resistant (Alopecurus myosuroides) resistant to herbicidally active compounds of the HRAC groups A and B; population mixture of field origin having increased metabolic resistance (IMR) and some target site resistance (TSR).
as §3

[8] = tested on: AVEFA (Avenafatua)
Text: as §1, §2
AVEFA (Avenafatua)—Wild oat
as §3

[9] = tested on: PAPRH (Papaver rhoeas)
Text: as §1, §2
PAPRH (Papaver rhoeas)—Poppy, common
as §3

[10] = tested on: CENCY (Centaurea cyanus)
Text: as §1, §2
CENCY (Centaurea cyanus)—Cornflower
as §3

[11] = tested on: BRSNW (Brassica napus)
Text: as §1, §2
BRSNW (Brassica napus)—Rape, winter
as §3

[12] = tested on: VERHE (Veronica hederaefolia)
Text: as §1, §2
VERHE (Veronica hederaefolia)—Speedwell, iveleaf
as §3

[13] = tested on: HORVS (Hordeum vulgare)
Text: as §1, §2
HORVS (Hordeum vulgare)—Barley, spring
as §3

[14] = tested on: EMEAU (Emex australis)
Text: as §1, §2
EMEAU (Emex australis)—Cathead
as §3

[15] = tested on: RAPRA (Raphanus raphanistrum)
Text: as §1, §2
RAPRA (Raphanus raphanistrum)—Charlock, jointed
as §3

What does the source list for `Cc1ccccc1CO[C@@H]1C[C@@]2(C(C)C)CC[C@]1(C)O2` (racemic) [Cinmethylin, (+/−)-2-exo-(2-methylbenzyloxy)-1-methyl-4-isopropyl-7-oxabicyclo[2.2.1]heptane]?
herbicidal action ([1]; 10 g AS/ha): 0%; herbicidal action ([1]; 25 g AS/ha): 80%; herbicidal action ([1]; 50 g AS/ha): 80%; herbicidal action ([1]; 100 g AS/ha): 90%; herbicidal action ([1]; 250 g AS/ha): 100%; herbicidal action ([1]; 500 g AS/ha): 100%; Herbicidal action ALOMY sensitive ([1]; pre-emergence, dose 50 g AS/ha): 80; herbicidal action ([2]; 10 g AS/ha): 0%; herbicidal action ([2]; 25 g AS/ha): 70%; herbicidal action ([2]; 50 g AS/ha): 85% and 100%; herbicidal action ([2]; 100 g AS/ha): 100%; herbicidal action ([2]; 250 g AS/ha): 100%; herbicidal action ([2]; 500 g AS/ha): 100%; Herbicidal action LOLRI resistant ([2]; pre-emergence, dose 50 g AS/ha): 100; herbicidal action ([3]; 10 g AS/ha): 0%; herbicidal action ([3]; 25 g AS/ha): 0%; herbicidal action ([3]; 50 g AS/ha): 30%; herbicidal action ([3]; 100 g AS/ha): 40%; herbicidal action ([3]; 250 g AS/ha): 75%; herbicidal action ([3]; 500 g AS/ha): 90%; Herbicidal action (crop damage) TRZAS ([3]; pre-emergence, dose 50 g AS/ha): 30; herbicidal action ([4]; 10 g AS/ha): 0%; herbicidal action ([4]; 25 g AS/ha): 70%; herbicidal action ([4]; 50 g AS/ha): 90%; herbicidal action ([4]; 100 g AS/ha): 100%; herbicidal action ([4]; 250 g AS/ha): 100%; herbicidal action ([4]; 500 g AS/ha): 100%; Herbicidal action LOLRI sensitive ([4]; pre-emergence, dose 50 g AS/ha): 90; herbicidal action ([5]; 10 g AS/ha): 0%; herbicidal action ([5]; 25 g AS/ha): 20%; herbicidal action ([5]; 50 g AS/ha): 50%; herbicidal action ([5]; 100 g AS/ha): 100%; herbicidal action ([5]; 250 g AS/ha): 100%; herbicidal action ([5]; 500 g AS/ha): 100%; Herbicidal action BROST ([5]; pre-emergence, dose 50 g AS/ha): 50; herbicidal action ([6]; 50 g AS/ha): 65%; herbicidal action ([6]; 100 g AS/ha): 70%; herbicidal action ([6]; 250 g AS/ha): 80%; herbicidal action ([6]; 500 g AS/ha): 100%; Herbicidal action SORHA ([6]; pre-emergence, dose 50 g AS/ha): 65; herbicidal action ([7]; 10 g AS/ha): 0%; herbicidal action ([7]; 25 g AS/ha): 60%; herbicidal action ([7]; 50 g AS/ha): 70%; herbicidal action ([7]; 100 g AS/ha): 70%; herbicidal action ([7]; 250 g AS/ha): 90%; herbicidal action ([7]; 500 g AS/ha): 100%; Herbicidal action ALOMY resistant ([7]; pre-emergence, dose 50 g AS/ha): 70; herbicidal action ([8]; 10 g AS/ha): 0%; herbicidal action ([8]; 25 g AS/ha): 0%; herbicidal action ([8]; 50 g AS/ha): 0%; herbicidal action ([8]; 100 g AS/ha): 25%; herbicidal action ([8]; 250 g AS/ha): 50%; herbicidal action ([8]; 500 g AS/ha): 70%; Herbicidal action AVEFA ([8]; pre-emergence, dose 50 g AS/ha): 0; herbicidal action ([9]; 10 g AS/ha): 0%; herbicidal action ([9]; 25 g AS/ha): 0%; herbicidal action ([9]; 50 g AS/ha): 0%; herbicidal action ([10]; 50 g AS/ha): 0%; herbicidal action ([10]; 100 g AS/ha): 0%; herbicidal action ([10]; 250 g AS/ha): 30%; herbicidal action ([10]; 500 g AS/ha): 80%; Herbicidal action CENCY ([10]; pre-emergence, dose 50 g AS/ha): 0; herbicidal action ([11]; 10 g AS/ha): 0%; herbicidal action ([11]; 25 g AS/ha): 0%; herbicidal action ([11]; 50 g AS/ha): 0%; herbicidal action ([11]; 100 g AS/ha): 0%; herbicidal action ([11]; 250 g AS/ha): 0%; herbicidal action ([11]; 500 g AS/ha): 10%; Herbicidal action BRSNW ([11]; pre-emergence, dose 50 g AS/ha): 0; herbicidal action ([12]; 10 g AS/ha): 0%; herbicidal action ([12]; 25 g AS/ha): 0%; herbicidal action ([12]; 50 g AS/ha): 0%; herbicidal action ([12]; 100 g AS/ha): 0%; herbicidal action ([12]; 250 g AS/ha): 0%; herbicidal action ([12]; 500 g AS/ha): 0%; Herbicidal action VERHE ([12]; pre-emergence, dose 50 g AS/ha): 0; herbicidal action ([13]; 10 g AS/ha): 0%; herbicidal action ([13]; 25 g AS/ha): 0%; herbicidal action ([13]; 50 g AS/ha): 30%; herbicidal action ([13]; 100 g AS/ha): 40%; herbicidal action ([13]; 250 g AS/ha): 65%; herbicidal action ([13]; 500 g AS/ha): 70%; Herbicidal action (crop damage) HORVS ([13]; pre-emergence, dose 50 g AS/ha): 30; herbicidal action ([14]; 10 g AS/ha): 0%; herbicidal action ([14]; 25 g AS/ha): 0%; herbicidal action ([14]; 50 g AS/ha): 0%; herbicidal action ([14]; 100 g AS/ha): 0%; herbicidal action ([14]; 250 g AS/ha): 0%; herbicidal action ([14]; 500 g AS/ha): 0%; Herbicidal action EMEAU ([14]; pre-emergence, dose 50 g AS/ha): 0; herbicidal action ([15]; 10 g AS/ha): 0%; herbicidal action ([15]; 25 g AS/ha): 0%; herbicidal action ([15]; 50 g AS/ha): 0%; herbicidal action ([15]; 100 g AS/ha): 0%; herbicidal action ([15]; 250 g AS/ha): 30%; herbicidal action ([15]; 500 g AS/ha): 40%; Herbicidal action RAPRA ([15]; pre-emergence, dose 50 g AS/ha): 0
